Test results: patent US20250115569A1, “SULFONAMIDE COMPOUNDS FOR THE TREATMENT OF NEUROLOGICAL CONDITIONS” (LARIO THERAPEUTICS LIMITED, priority 2021, published 2025)

How the values were obtained:
Cav2.3 = Cav2.3 (Homo sapiens, UniProt Q15878); experiment: Human Cav2.3 channel calcium-influx assay; type: cell-based; conditions: Fluo8 fluorescence, HEK-293 T-Rex/Kir2.1/Cav2.3e cells, without pluronic acid, read-out: Cav2.3 (pIC50) (converted)
Method in brief: (§1)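 Signal = peak fluorescence (5–130 s) minus baseline (1–2 s), normalized to neutral (0) and inhibitor (−100) controls as % effect. Depolarization used final 20 mM KCl, 130 mM NaCl, 2 mM CaCl2, after 3 min RT compound exposure (30 μM top, half-log, 8 points, 0.3% DMSO) in doxycycline-induced HEK-293 T-Rex/Kir2.1/Cav2.3e-β4-α2δ1 cells with Fluo8 NW.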

Human Cav2.3 channel = Human Cav2.3 channel calcium-influx assay; type: cell-based; conditions: Fluo8 fluorescence, HEK-293 T-Rex/Kir2.1/Cav2.3e cells, without pluronic acid
Method in brief: as §1

Sequence of Cav2.3 (Q15878 whole entry, looked up): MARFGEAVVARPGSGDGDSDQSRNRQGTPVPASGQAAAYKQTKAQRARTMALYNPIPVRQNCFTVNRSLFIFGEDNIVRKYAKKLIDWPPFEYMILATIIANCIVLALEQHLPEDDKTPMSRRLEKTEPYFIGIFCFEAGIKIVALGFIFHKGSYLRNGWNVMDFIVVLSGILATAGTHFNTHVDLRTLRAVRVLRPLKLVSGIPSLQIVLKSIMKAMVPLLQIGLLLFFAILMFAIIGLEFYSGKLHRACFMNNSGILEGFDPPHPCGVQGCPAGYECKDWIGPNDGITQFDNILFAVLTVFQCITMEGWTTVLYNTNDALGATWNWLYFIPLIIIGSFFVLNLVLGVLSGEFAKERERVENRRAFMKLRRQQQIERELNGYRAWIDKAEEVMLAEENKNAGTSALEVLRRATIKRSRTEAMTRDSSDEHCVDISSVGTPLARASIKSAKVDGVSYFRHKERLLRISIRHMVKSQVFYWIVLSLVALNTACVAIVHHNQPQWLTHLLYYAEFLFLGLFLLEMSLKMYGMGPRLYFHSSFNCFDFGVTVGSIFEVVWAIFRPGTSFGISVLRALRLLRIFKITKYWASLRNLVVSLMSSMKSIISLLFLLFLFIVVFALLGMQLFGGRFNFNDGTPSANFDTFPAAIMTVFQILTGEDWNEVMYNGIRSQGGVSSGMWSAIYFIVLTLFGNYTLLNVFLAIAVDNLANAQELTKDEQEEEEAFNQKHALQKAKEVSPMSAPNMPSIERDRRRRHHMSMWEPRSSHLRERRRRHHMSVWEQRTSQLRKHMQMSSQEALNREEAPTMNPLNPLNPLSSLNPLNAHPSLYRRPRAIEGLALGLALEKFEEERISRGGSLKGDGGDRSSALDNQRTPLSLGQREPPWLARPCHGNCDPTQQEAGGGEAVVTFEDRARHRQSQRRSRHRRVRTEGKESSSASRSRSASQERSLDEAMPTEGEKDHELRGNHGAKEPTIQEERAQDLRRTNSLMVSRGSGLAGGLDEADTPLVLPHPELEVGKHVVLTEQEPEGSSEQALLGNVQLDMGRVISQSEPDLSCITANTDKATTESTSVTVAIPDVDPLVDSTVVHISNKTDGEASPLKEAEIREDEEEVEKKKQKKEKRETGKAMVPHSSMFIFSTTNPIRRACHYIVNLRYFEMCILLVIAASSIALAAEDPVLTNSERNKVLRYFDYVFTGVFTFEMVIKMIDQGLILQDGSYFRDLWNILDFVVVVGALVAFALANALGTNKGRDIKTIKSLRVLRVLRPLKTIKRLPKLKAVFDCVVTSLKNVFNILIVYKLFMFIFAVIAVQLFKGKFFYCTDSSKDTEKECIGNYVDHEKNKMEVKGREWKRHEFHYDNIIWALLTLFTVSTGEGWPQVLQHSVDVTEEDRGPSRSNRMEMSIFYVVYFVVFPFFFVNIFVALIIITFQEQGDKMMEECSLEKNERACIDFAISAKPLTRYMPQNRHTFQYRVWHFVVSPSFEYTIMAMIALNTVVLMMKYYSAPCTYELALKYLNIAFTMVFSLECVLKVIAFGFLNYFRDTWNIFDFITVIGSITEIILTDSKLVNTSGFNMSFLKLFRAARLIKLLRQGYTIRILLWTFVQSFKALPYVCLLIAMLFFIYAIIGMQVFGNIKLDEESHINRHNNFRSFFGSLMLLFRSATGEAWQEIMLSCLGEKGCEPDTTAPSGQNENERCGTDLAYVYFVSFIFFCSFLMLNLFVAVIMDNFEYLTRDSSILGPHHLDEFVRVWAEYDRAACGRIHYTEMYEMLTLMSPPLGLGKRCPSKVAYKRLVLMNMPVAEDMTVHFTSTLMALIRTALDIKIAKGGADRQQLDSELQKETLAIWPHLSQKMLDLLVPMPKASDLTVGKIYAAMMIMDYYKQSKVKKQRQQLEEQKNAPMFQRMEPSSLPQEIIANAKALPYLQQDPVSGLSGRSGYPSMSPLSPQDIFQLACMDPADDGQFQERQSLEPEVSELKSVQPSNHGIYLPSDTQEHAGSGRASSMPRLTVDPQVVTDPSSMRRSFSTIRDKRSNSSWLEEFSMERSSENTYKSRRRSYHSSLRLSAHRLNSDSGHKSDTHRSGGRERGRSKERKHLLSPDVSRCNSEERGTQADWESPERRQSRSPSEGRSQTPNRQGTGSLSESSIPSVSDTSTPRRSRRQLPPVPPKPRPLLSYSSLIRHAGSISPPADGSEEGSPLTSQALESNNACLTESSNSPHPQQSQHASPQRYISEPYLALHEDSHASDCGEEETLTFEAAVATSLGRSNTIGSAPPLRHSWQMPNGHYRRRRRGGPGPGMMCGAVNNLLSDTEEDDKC

Row | SMILES | IC50 (Cav2.3) | Cav2.3 (pIC50) (Human Cav2.3 channel)
1 | CCN(C(c1ccc(F)cc1)C(F)(F)F)S(=O)(=O)c1nccs1 (stereo not drawn) [Example 81, N-ethyl-N-(2,2,2-trifluoro-1-(4-fluorophenyl)ethyl)thiazole-2-sulfonamide] | 955 nM | –
2 | CCN([C@H](c1ccc(F)cc1)C(F)(F)F)S(=O)(=O)c1cnccn1 [Example 265, (R)—N-ethyl-N-(2,2,2-trifluoro-1-(4-fluorophenyl)ethyl)pyrazine-2-sulfonamide] | 39.8 nM | –
3 | CCN(C(c1ccc(F)cc1)C(F)(F)F)S(=O)(=O)c1cncc(C2COC2)c1 (stereo not drawn) [Example 99, N-ethyl-5-(oxetan-3-yl)-N-(2,2,2-trifluoro-1-(4-fluorophenyl)ethyl)pyridine-3-sulfonamide] | 275 nM | –
4 | CCN([C@H](c1ccc(F)cc1)C(F)(F)F)S(=O)(=O)c1ccc2nc(C)c(Cl)n2n1 [Example 157, (R)-3-chloro-N-ethyl-2-methyl-N-(2,2,2-trifluoro-1-(4-fluorophenyl)ethyl)imidazo[1,2-b]pyridazine-6-sulfonamide] | 3020 nM | –
5 | CCN([C@H](c1ccc(F)cc1)C(F)(F)F)S(=O)(=O)c1cnc2[nH]nnc2c1 [Example 166, (R)—N-ethyl-N-(2,2,2-trifluoro-1-(4-fluorophenyl)ethyl)-1H-[1,2,3]triazolo[4,5-b]pyridine-6-sulfonamide] | 794 nM | –
6 | Cc1ccc([C@@H](N(C)S(=O)(=O)c2cncc(F)c2)C(F)(F)F)cc1 [Example 222, (R)-5-fluoro-N-methyl-N-(2,2,2-trifluoro-1-(p-tolyl)ethyl)pyridine-3-sulfonamide] | 245 nM | –
7 | CCN([C@H](c1ccc(F)cc1)C(F)(F)F)S(=O)(=O)c1cc2cn[nH]c2cn1 [Example 167, (R)—N-ethyl-N-(2,2,2-trifluoro-1-(4-fluorophenyl)ethyl)-1H-pyrazolo[3,4-c]pyridine-5-sulfonamide] | 331 nM | –
8 | CCN(C(c1ccc(F)cc1)C(F)(F)F)S(=O)(=O)c1ncc(C#N)s1 (stereo not drawn) [Example 80, 5-Cyano-N-ethyl-N-(2,2,2-trifluoro-1-(4-fluorophenyl)ethyl)thiazole-2-sulfonamide] | 447 nM | –
9 | Cc1cc([C@@H](N(C)S(=O)(=O)c2cncc(F)c2)C(F)(F)F)ccc1C(F)(F)F [Example 270, (R)-5-fluoro-N-methyl-N-(2,2,2-trifluoro-1-(3-methyl-4-(trifluoromethyl)phenyl)ethyl)pyridine-3-sulfonamide] | 490 nM | –
10 | CCN([C@@H](c1ccc(F)cc1)C(F)(F)F)S(=O)(=O)c1cnnc(OC)c1 [Example 122, (S)—N-ethyl-6-methoxy-N-(2,2,2-trifluoro-1-(4-fluorophenyl)ethyl)pyridazine-4-sulfonamide] | 7240 nM | –
11 | [2H][C@@](c1ccc(Cl)cc1)(N(C)S(=O)(=O)c1cncc(C#N)c1)C(F)(F)F [Example 242, N-(1-(4-chlorophenyl)-2,2,2-trifluoroethyl-1-d)-5-cyano-N-methylpyridine-3-sulfonamide] | 35.5 nM | –
12 | CN([C@H](c1ccc(F)cc1)C(F)(F)F)S(=O)(=O)c1cncc(C#N)c1 [Example 274, (R)-5-Cyano-N-methyl-N-(2,2,2-trifluoro-1-(4-fluorophenyl)ethyl)pyridine-3-sulfonamide] | 100 nM | –
13 | CCN([C@H](c1ccc(F)cc1)C(F)(F)F)S(=O)(=O)c1nc2ccccn2n1 [Example 153, (R)—N-ethyl-N-(2,2,2-trifluoro-1-(4-fluorophenyl)ethyl)-[1,2,4]triazolo[1,5-a]pyridine-2-sulfonamide] | 1580 nM | –
14 | COc1ccc([C@@H](N(C)S(=O)(=O)c2cn3ccncc3n2)C(F)(F)F)cc1 [Example 196, (R)—N-methyl-N-(2,2,2-trifluoro-1-(4-methoxyphenyl)ethyl)imidazo[1,2-a]pyrazine-2-sulfonamide] | 9330 nM | –
15 | CCN(C(c1ccc(F)cc1)C(F)(F)F)S(=O)(=O)c1cncc(C(N)=O)c1 (stereo in doubt) [Example 53, (R)-5-(N-ethyl-N-(2,2,2-trifluoro-1-(4-fluorophenyl)ethyl)sulfamoyl)nicotinamide] | 1780 nM | –
16 | CCN([C@H](c1ccc(F)cc1)C(F)(F)F)S(=O)(=O)c1ccc2nccn2c1 [Example 146, (R)—N-ethyl-N-(2,2,2-trifluoro-1-(4-fluorophenyl)ethyl)imidazo[1,2-a]pyridine-6-sulfonamide] | 17.4 nM | –
17 | CN([C@H](c1ccc(C(F)(F)F)cc1)C(F)(F)F)S(=O)(=O)c1cnc2ccccn12 [Example 235, (R)—N-methyl-N-(2,2,2-trifluoro-1-(4-(trifluoromethyl)phenyl)ethyl)imidazo[1,2-a]pyridine-3-sulfonamide] | 31.6 nM | –
18 | CCN([C@H](c1ccc(C(F)(F)F)c(C)c1)C(F)(F)F)S(=O)(=O)c1cncc(C#N)c1 [Example 268, (R)-5-cyano-N-ethyl-N-(2,2,2-trifluoro-1-(3-methyl-4-(trifluoromethyl)phenyl)ethyl)pyridine-3-sulfonamide] | 468 nM | –

Row | SMILES | IC50 (Cav2.3) | Cav2.3 (pIC50) (Human Cav2.3 channel)
19 | CCN(C(c1ccc(F)cc1)C(F)(F)F)S(=O)(=O)c1csc(C#N)n1 (stereo not drawn) [Example 50, 2-cyano-N-ethyl-N-(2,2,2-trifluoro-1-(4-fluorophenyl)ethyl)thiazole-4-sulfonamide] | 240 nM | –
20 | CCN(C(c1ccc(F)cc1)C(F)(F)F)S(=O)(=O)c1cc(N2CCOCC2)cs1 (stereo not drawn) [Example 92, N-ethyl-4-morpholino-N-(2,2,2-trifluoro-1-(4-fluorophenyl)ethyl)thiophene-2-sulfonamide] | 1320 nM | –
21 | CCN(C(c1ccc(F)cc1)C(F)(F)F)S(=O)(=O)c1cnc(C#N)s1 (stereo not drawn) [Example 82, 2-Cyano-N-ethyl-N-(2,2,2-trifluoro-1-(4-fluorophenyl)ethyl)thiazole-5-sulfonamide] | 912 nM | –
22 | CCN([C@H](c1ccc(F)cc1)C(F)(F)F)S(=O)(=O)c1cn2ccnc2cn1 [Example 198, (R)—N-ethyl-N-(2,2,2-trifluoro-1-(4-fluorophenyl)ethyl)imidazo[1,2-a]pyrazine-6-sulfonamide] | 324 nM | –
23 | COc1ccc([C@@H](N(C)S(=O)(=O)C2CCOCC2)C(F)(F)F)cc1 [Example 129, (R)—N-methyl-N-(2,2,2-trifluoro-1-(4-methoxyphenyl)ethyl)tetrahydro-2H-pyran-4-sulfonamide] | 1170 nM | –
24 | N#Cc1cncc(S(=O)(=O)N(CCF)C(c2ccc(F)cc2)C(F)(F)F)c1 (stereo not drawn) [Example 64, 5-Cyano-N-(2-fluoroethyl)-N-(2,2,2-trifluoro-1-(4-fluorophenyl)ethyl)pyridine-3-sulfonamide] | 178 nM | –
25 | CCN([C@H](c1ccc(F)cc1)C(F)(F)F)S(=O)(=O)c1cnc2ccnn2c1 [Example 165, (R)—N-ethyl-N-(2,2,2-trifluoro-1-(4-fluorophenyl)ethyl)pyrazolo[1,5-a]pyrimidine-6-sulfonamide] | 123 nM | –
26 | CCN([C@H](c1ccc(F)cc1)C(F)(F)F)S(=O)(=O)c1cn2ccccc2n1 [Example 142, (R)—N-ethyl-N-(2,2,2-trifluoro-1-(4-fluorophenyl)ethyl)imidazo[1,2-a]pyridine-2-sulfonamide] | 1070 nM | –
27 | CCN([C@H](c1ccc(OC)cc1)C(F)(F)F)S(=O)(=O)c1cncc(F)c1 [Example 257, (R)—N-ethyl-5-fluoro-N-(2,2,2-trifluoro-1-(4-methoxyphenyl)ethyl)pyridine-3-sulfonamide] | 22.9 nM | –
28 | CCN([C@H](c1ccc(F)cc1)C(F)(F)F)S(=O)(=O)c1cncc(F)c1 [Example 261, (R)—N-ethyl-5-fluoro-N-(2,2,2-trifluoro-1-(4-fluorophenyl)ethyl)pyridine-3-sulfonamide] | 11.7 nM | –
29 | CCN(C(c1ccc(F)cc1)C(F)(F)F)S(=O)(=O)c1cnc(C(N)=O)s1 (stereo not drawn) [Example 46, 5-(N-ethyl-N-(2,2,2-trifluoro-1-(4-fluorophenyl)ethyl)sulfamoyl)thiazole-2-carboxamide] | 468 nM | –
30 | CN([C@H](c1ccc(OC(F)F)cc1)C(F)(F)F)S(=O)(=O)c1cncc(C#N)c1 [Example 240, (R)-5-cyano-N-(1-(4-(difluoromethoxy)phenyl)-2,2,2-trifluoroethyl)-N-methylpyridine-3-sulfonamide] | 162 nM | –
31 | CCN([C@H](c1ccc(F)cc1)C(F)(F)F)S(=O)(=O)c1ccn2ncnc2c1 [Example 137, (R)—N-ethyl-N-(2,2,2-trifluoro-1-(4-fluorophenyl)ethyl)-[1,2,4]triazolo[1,5-a]pyridine-7-sulfonamide] | 72.4 nM | –
32 | [2H]C([2H])([2H])N([C@H](c1ccc(Cl)cc1)C(F)(F)F)S(=O)(=O)c1cncc(C#N)c1 [Example 227, (R)—N-(1-(4-chlorophenyl)-2,2,2-trifluoroethyl)-5-cyano-N-(methyl-d3)pyridine-3-sulfonamide] | 28.2 nM | –
33 | CCN([C@H](c1ccc(OC(F)(F)F)cc1)C(F)(F)F)S(=O)(=O)c1cncc(C#N)c1 [Example 119, (R)-5-Cyano-N-ethyl-N-(2,2,2-trifluoro-1-(4-(trifluoromethoxy)phenyl)ethyl)pyridine-3-sulfonamide] | 87.1 nM | –
34 | CCN([C@H](c1ccc(F)cc1)C(F)(F)F)S(=O)(=O)c1ccc2c(c1)COC2 [Example 38, (R)—N-ethyl-N-(2,2,2-trifluoro-1-(4-fluorophenyl)ethyl)-1,3-dihydroisobenzofuran-5-sulfonamide] | – | 6.91
35 | CN([C@H](c1ccc(Cl)cc1)C(F)(F)F)S(=O)(=O)c1cnc2[nH]cnc2c1 [Example 193, (R)—N-(1-(4-chlorophenyl)-2,2,2-trifluoroethyl)-N-methyl-3H-imidazo[4,5-b]pyridine-6-sulfonamide] | – | 6.65
36 | CCN(C(c1ccc(F)cc1)C(F)(F)F)S(=O)(=O)c1ccc2c(c1)COCC2 (stereo not drawn) [Example 29, N-ethyl-N-(2,2,2-trifluoro-1-(4-fluorophenyl)ethyl)isochromane-7-sulfonamide] | – | 6.18
